Reference: patent publication US11919858B2, “Aminonapthoquinone compounds and pharmaceutical composition for blocking ubiquitination-proteasome system in diseases” (Calgent Biotechnology Co., Ltd., priority 2015, dated 2024)

Columns and labels:
SK-MEL-5 = assay: Growth inhibition assay; type: cell-based; details: Homo sapiens; SK-MEL-5 (Melanoma), 48 hours
Description: (§1) Cells were seeded in 96-well plastic plates and exposed to MPT0L056 for 48 hours. Cell viability was assessed using the 3-(4,5-dimethylthiazol-2-yl)-2,5-diphenyltetrazolium bromide assay. Growth inhibition was expressed as the percentage of surviving cells in drug-treated versus DMSO-treated control cells.

A431 = assay: Growth inhibition assay; type: cell-based; details: Homo sapiens, A-431; A431 (Skin cancer), 48 hours
Description: as §1

Ramos = assay: Growth inhibition assay; type: cell-based; details: Homo sapiens; Ramos (B cell leukemia), 48 hours
Description: as §1

OVCAR3 = assay: Growth inhibition assay; type: cell-based; details: Homo sapiens, OVCAR-3; OVCAR3 (Ovarian cancer), 48 hours
Description: as §1

PC-3 = assay: Growth inhibition assay; type: cell-based; details: Homo sapiens; PC-3 (Prostate cancer), 48 hours
Description: as §1

KATO III = assay: Growth inhibition assay; type: cell-based; details: Homo sapiens; KATO III (Stomach cancer), 48 hours
Description: as §1

H33HJ-JA1 = assay: Growth inhibition assay; type: cell-based; details: H33HJ-JA1 (T cell lymphoma), 48 hours
Description: as §1

ZR-75 = assay: Growth inhibition assay; type: cell-based; details: ZR75; ZR-75 (Breast cancer), 48 hours
Description: as §1

Hepatocytes = assay: Growth inhibition assay; type: cell-based; details: Hepatocyte; Hepatocytes (Normal cells), 48 hours
Description: as §1

ACHN = assay: Growth inhibition assay; type: cell-based; details: Homo sapiens; ACHN (Kidney cancer), 48 hours
Description: as §1

NHDF = assay: Growth inhibition assay; type: cell-based; details: Homo sapiens; NHDF (Normal cells), 48 hours
Description: as §1

HepG2 = assay: Growth inhibition assay; type: cell-based; details: Homo sapiens; HepG2 (Liver cancer), 48 hours
Description: as §1

U-87 MG = assay: Growth inhibition assay; type: cell-based; details: Homo sapiens; U-87 MG (Brain cancer), 48 hours
Description: as §1

HT-29 = assay: Growth inhibition assay; type: cell-based; details: Homo sapiens; HT-29 (Colorectal cancer), 48 hours
Description: as §1

BxPC3 = assay: Growth inhibition assay; type: cell-based; details: Homo sapiens, BXPC-3; BxPC3 (Pancreas cancer), 48 hours
Description: as §1

T98 = assay: Growth inhibition assay; type: cell-based; details: Homo sapiens; T98 (Brain cancer), 48 hours
Description: as §1

REH = assay: Growth inhibition assay; type: cell-based; details: Homo sapiens; REH (B cell leukemia), 48 hours
Description: as §1

PC-6 = assay: Growth inhibition assay; type: cell-based; details: Homo sapiens; PC-6 (Lung cancer), 48 hours
Description: as §1

A-498 = assay: Growth inhibition assay; type: cell-based; details: Homo sapiens, A498; A-498 (Kidney cancer), 48 hours
Description: as §1

MCF-7 = assay: Growth inhibition assay; type: cell-based; details: Homo sapiens, MCF7; MCF-7 (Breast cancer), 48 hours
Description: as §1

K562 = assay: Growth inhibition assay; type: cell-based; details: Homo sapiens; K562 (Leukemia), 48 hours
Description: as §1

A549 = assay: Growth inhibition assay; type: cell-based; details: Homo sapiens; A549 (Lung cancer), 48 hours
Description: as §1

HUVECs = assay: Growth inhibition assay; type: cell-based; details: Homo sapiens, HUVEC; HUVECs (Normal cells), 48 hours
Description: as §1

AsPC1 = assay: Growth inhibition assay; type: cell-based; details: Homo sapiens; AsPC1 (Pancreas cancer), 48 hours
Description: as §1

MOLT4 = assay: Growth inhibition assay; type: cell-based; details: Homo sapiens, MOLT-4; MOLT4 (Leukemia), 48 hours
Description: as §1

OVCAR4 = assay: Growth inhibition assay; type: cell-based; details: Homo sapiens, OVCAR-4; OVCAR4 (Ovarian cancer), 48 hours
Description: as §1

NCI-H460 = assay: Growth inhibition assay; type: cell-based; details: Homo sapiens; NCI-H460 (Lung cancer), 48 hours
Description: as §1

[1] = tested on: human MDA-MB-231 breast adenocarcinoma; assay: Human MDA-MB-231 breast cancer xenograft in female nude mice (TMU-MDA-MB-231-e0002)
[2] = tested on: human A2780 ovarian adenocarcinoma; assay: Human A2780 ovarian cancer xenograft in female nude mice (TMU-A2780-e0001); type: in vivo

O=C(Nc1ccncc1)c1ccc(CNC2=C(Cl)C(=O)c3ccccc3C2=O)cc1 [MPT0L056]
GI50 (SK-MEL-5): 210 nM | GI50 (A431): 1200 nM | GI50 (Ramos): 890 nM | GI50 (OVCAR3): 1900 nM | GI50 (PC-3): 2500 nM | GI50 (KATO III): 2400 nM | GI50 (H33HJ-JA1): 1800 nM | GI50 (ZR-75): > 5000 nM | GI50 (Hepatocytes): 30000 nM | GI50 (ACHN): 2700 nM | GI50 (NHDF): 6300 nM | GI50 (HepG2): 3600 nM | GI50 (U-87 MG): 2500 nM | GI50 (HT-29): 3800 nM | GI50 (BxPC3): 1200 nM | GI50 (T98): 5700 nM | GI50 (REH): 2800 nM | GI50 (PC-6): 1800 nM | GI50 (A-498): 3500 nM | GI50 (MCF-7): 900 nM | GI50 (K562): 1700 nM | GI50 (A549): > 5000 nM | GI50 (HUVECs): 16000 nM | GI50 (AsPC1): 4600 nM | GI50 (MOLT4): 4000 nM | GI50 (OVCAR4): 1400 nM | GI50 (NCI-H460): 2900 nM | tumor growth delay ([1]; MPT0L056 25 mg/kg p.o. once every day for ten days): did not significantly express tumor growth delay | antitumor activity ([1]; MPT0L056 50 mg/kg p.o. once every day for ten days): produced significant antitumor activity | antitumor activity ([1]; MPT0L056 100 mg/kg p.o. once every day for ten days): produced significant antitumor activity | body weight change ([1]; MPT0L056 100, 50 and 25 mg/kg, FIG. 6): did not significantly affect the animal body weight | antitumor activity ([2]; MPT0L056 50 mg/kg (so in the source) p.o. once every day to the end): but not 50 mg/kg (P>0.05) produced significant antitumor activity | antitumor activity ([2]; MPT0L056 200 mg/kg p.o. once every day to the end): produced significant antitumor activity | body weight change ([2]; MPT0L056 100 and 200 mg/kg, FIG. 8): did not significantly affect the animal body weight
